The assay addresses PD-1/PD-L1 (Homo sapiens (Human), UniProt Q9NZQ7). In words: PD-1/PD-L1 Homogeneous Time-Resolved Fluorescence (HTRF) Binding Assay. The conditions noted are these: recombinant human PD-1 (3 nM) and PD-L1 (10 nM), 25° C., PBS pH 7.4. The method, boiled down:
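Fc-tagged human PD-1 (25-167, 3 nM) and His-tagged PD-L1 (19-238, 10 nM) preincubated with inhibitor 40 min in PBS pH 7.4, 0.05% Tween-20, 0.1% BSA, 1% DMSO, 25 °C. Binding detected by HTRF (Eu anti-IgG/APC anti-His, 665/620 nm) after 60 min; IC50 from percent control activity.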
In general terms: Time-resolved FRET reads energy transfer from a long-lived donor to a nearby acceptor.

Some results are limits rather than exact numbers.

PD-1/PD-L1, sequence (Q9NZQ7 19-238): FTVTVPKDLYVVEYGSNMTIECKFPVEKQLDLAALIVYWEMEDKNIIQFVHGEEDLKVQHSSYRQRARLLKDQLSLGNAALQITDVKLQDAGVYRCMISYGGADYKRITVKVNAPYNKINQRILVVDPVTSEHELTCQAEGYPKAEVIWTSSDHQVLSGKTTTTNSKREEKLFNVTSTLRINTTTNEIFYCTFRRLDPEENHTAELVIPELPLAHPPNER

For orientation: IC50 means the concentration that inhibits the measured activity by half. In the case of `Cc1c(Nc2nccc3cc(CN4CC[C@@H](O)C4)cnc23)cccc1-c1cccc(-c2nc3cc(CN4CC[C@H](C(=O)O)C4)cc(C#N)c3o2)c1C` [Example 28, (S)-1-((7-cyano-2-(3′-(3-(((R)-3-hydroxypyrrolidin-1-yl)methyl)-1,7-naphthyridin-8-ylamino)-2,2′-dimethylbiphenyl-3-yl)benzo[d]oxazol-5-yl)methyl)pyrrolidine-3-carboxylic acid], the IC50 is at most 0.01 µM. With `Cc1c(Nc2nccc3cc(CN[C@@H](C)CO)cnc23)cccc1-c1cccc(-c2nc3cc(CN4CC[C@@](C)(C(=O)O)C4)cc(C#N)c3o2)c1C` [Example 195, (R)-1-((7-cyano-2-(3′-(3-(((S)-1-hydroxypropan-2-ylamino)methyl)-1,7-naphthyridin-8-ylamino)-2,2′-dimethylbiphenyl-3-yl)benzo[d]oxazol-5-yl)methyl)-3-methylpyrrolidine-3-carboxylic acid] the figure was at most 0.01 µM; with `Cc1c(-c2nc3cc(CN4CC[C@@H](C(=O)O)C4)cc(C#N)c3o2)cccc1-c1cccc(-c2nc3c(o2)CN(C(=O)CN2CC[C@@H](O)C2)C3)c1Cl` [Example 256, (R)-1-((2-(2′-chloro-3′-(5-(2-((R)-3-hydroxypyrrolidin-1-yl)acetyl)-5,6-dihydro-4H-pyrrolo[3,4-d]oxazol-2-yl)-2-methyl-[1,1′-biphenyl]-3-yl)-7-cyanobenzo[d]oxazol-5-yl)methyl)pyrrolidine-3-carboxylic acid], at most 0.01 µM.

As for `Cc1c(-c2nc3cc(CN4CC[C@@](C)(C(=O)O)C4)cc(C#N)c3o2)cccc1-c1cccc(-c2nc3c(s2)CN(C(=O)CN2CC[C@@H](O)C2)C3)c1C` [Example 222], the 50% inhibitory concentration (IC50) was at most 0.01 µM. Then `Cc1c(-c2nc3cc(CN4CCCC4)cc(C#N)c3o2)cccc1-c1cccc(NC(=O)c2nc3c(n2C)CCN(C[C@H]2CC[C@H](C(=O)O)CC2)C3)c1Cl` [Example 271, trans-4-((2-(2-chloro-3′-(7-cyano-5-(pyrrolidin-1-ylmethyl)benzo[d]oxazol-2-yl)-2′-methylbiphenyl-3-ylcarbamoyl)-1-methyl-6,7-dihydro-1H-imidazo[4,5-c]pyridin-5(4H)-yl)methyl)cyclohexanecarboxylic acid], with at most 0.01 µM; and `Cc1c(-c2nc3cc(CN4CC5(CC(C(=O)O)C5)C4)cc(C#N)c3o2)cccc1-c1cccc(-c2nc3c(s2)CN(C(=O)CN2CC[C@@H](O)C2)C3)c1C` [Example 234, 2-((7-cyano-2-(3′-(5-(2-((R)-3-hydroxypyrrolidin-1-yl)acetyl)-5,6-dihydro-4H-pyrrolo[3,4-d]thiazol-2-yl)-2,2′-dimethylbiphenyl-3-yl)benzo[d]oxazol-5-yl)methyl)-2-azaspiro[3.3]heptane-6-carboxylic acid], with at most 0.01 µM. With `Cc1c(NC(=O)c2nc3c(n2C)CCN(C)C3)cccc1-c1cccc(-c2nc3cc(CN4CC[C@@](C)(C(=O)O)C4)cc(C#N)c3o2)c1C` [Example 260, (R)-1-((7-cyano-2-(3′-(1,5-dimethyl-4,5,6,7-tetrahydro-1H-imidazo[4,5-c]pyridine-2-carboxamido)-2,2′-dimethylbiphenyl-3-yl)benzo[d]oxazol-5-yl)methyl)-3-methylpyrrolidine-3-carboxylic acid] the figure was at most 0.01 µM. With `Cc1c(-c2nc3c(o2)CN(C(=O)CN(C)C(C)C)C3)cccc1-c1cccc(-c2nc3cc(CN4CC[C@@](C)(C(=O)O)C4)cc(C#N)c3o2)c1C` [Example 248, (R)-1-((7-cyano-2-(3′-(5-(N-isopropyl-N-methylglycyl)-5,6-dihydro-4H-pyrrolo[3,4-d]oxazol-2-yl)-2,2'-dimethyl-[1,1′-biphenyl]-3-yl)benzo[d]oxazol-5-yl)methyl)-3-methylpyrrolidine-3-carboxylic acid] the figure was at most 0.01 µM; with `Cc1c(-c2nc3cc(CNCCO)cc(Cl)c3o2)cccc1-c1cccc(NC(=O)c2nc3c(s2)CN(C)CC3)c1Cl` [Example 9, N-(2-chloro-3′-(7-chloro-5-(((2-hydroxyethyl)amino)methyl)benzo[d]oxazol-2-yl)-2′-methyl-[1,1′-biphenyl]-3-yl)-5-methyl-4,5,6,7-tetrahydrothiazolo[5,4-c]pyridine-2-carboxamide], at most 0.01 µM; with `Cc1c(-c2nc3c(o2)CN(C(=O)CN2CCCC[C@H]2C(=O)O)C3)cccc1-c1cccc(-c2nc3cc(CN4CC[C@@H](O)C4)cc(C#N)c3o2)c1C` [Example 133, (S)-1-(2-(2-(3′-(7-cyano-5-(((R)-3-hydroxypyrrolidin-1-yl)methyl)benzo[d]oxazol-2-yl)-2,2′-dimethyl-[1,1′-biphenyl]-3-yl)-4,6-dihydro-5H-pyrrolo[3,4-d]oxazol-5-yl)-2-oxoethyl)piperidine-2-carboxylic acid], at most 0.01 µM. As to `Cc1c(Nc2nccc3cc(CN4CC[C@@H](O)C4)cnc23)cccc1-c1cccc(-c2nc3cc(CN4CC5(C(=O)O)CC4C5)cc(C#N)c3o2)c1C` [Example 178, (R)-2-((7-cyano-2-(3′-(3-((3-hydroxypyrrolidin-1-yl)methyl)-1,7-naphthyridin-8-ylamino)-2,2′-dimethylbiphenyl-3-yl)benzo[d]oxazol-5-yl)methyl)-2-aza bicyclo[2.1.1]hexane-4-carboxylic acid], the 50% inhibitory concentration (IC50) was at most 0.01 µM.

`Cc1c(-c2nc3cc(CN4CC5(C(=O)O)CC4C5)cc(C#N)c3o2)cccc1-c1cccc(-c2nc3c(s2)CN(C(=O)CN(C)C)C3)c1C` [Example 235, 2-((7-cyano-2-(3′-(5-(2-(dimethylamino)acetyl)-5,6-dihydro-4H-pyrrolo[3,4-d]thiazol-2-yl)-2,2′-dimethylbiphenyl-3-yl)benzo[d]oxazol-5-yl)methyl)-2-azabicyclo[2.1.1]hexane-4-carboxylic acid]: the 50% inhibitory concentration (IC50) is at most 0.01 µM. Then `Cc1c(-c2nc3cc(CN4CC[C@@H](C(=O)O)C4)cc(C#N)c3o2)cccc1-c1cccc(-n2cc3c(n2)CN(C)CC3)c1Cl` [Example 57, (R)-1-((2-(2′-chloro-2-methyl-3′-(6-methyl-4,5,6,7-tetrahydro-2H-pyrazolo[3,4-c]pyridin-2-yl)biphenyl-3-yl)-7-cyanobenzo[d]oxazol-5-yl)methyl)pyrrolidine-3-carboxylic acid], with at most 0.01 µM; and `Cc1c(-c2nc3c(s2)CNCC3)cccc1-c1cccc(-c2nc3cc(CN4CC[C@@H](C(=O)O)C4)cc(C#N)c3o2)c1Cl` [Example 69, (R)-1-((2-(2-chloro-2′-methyl-3′-(4,5,6,7-tetrahydrothiazolo[5,4-c]pyridin-2-yl)-[1,1′-biphenyl]-3-yl)-7-cyanobenzo[d]oxazol-5-yl)methyl)pyrrolidine-3-carboxylic acid], with at most 0.01 µM. Turning to `Cc1c(NC(=O)c2nc3c(n2C)CCN(C2CC(F)(F)C2)C3)cccc1-c1cccc(-c2nc3cc(CN4CC[C@H](C(=O)O)C4)cc(C#N)c3o2)c1C` [Example 40, (S)-1-((7-cyano-2-(3′-(5-(3,3-difluorocyclobutyl)-1-methyl-4,5,6,7-tetrahydro-1H-imidazo[4,5-c]pyridine-2-carboxamido)-2,2′-dimethylbiphenyl-3-yl)benzo[d]oxazol-5-yl)methyl)pyrrolidine-3-carboxylic acid], the half-inhibitory concentration (IC50) was in the range of 0.01 to 0.1 µM. Then `Cc1c(-c2nc3cc(CN4CC[C@@H](C(=O)O)C4)cc(C#N)c3o2)cccc1-c1cccc(-c2nc3c(s2)CN(C(=O)CCN(C)C)C3)c1C` [Example 106, (R)-1-((7-cyano-2-(3′-(5-(3-(dimethylamino)propanoyl)-5,6-dihydro-4H-pyrrolo[3,4-d]thiazol-2-yl)-2,2′-dimethylbiphenyl-3-yl)benzo[d]oxazol-5-yl)methyl)pyrrolidine-3-carboxylic acid], with at most 0.01 µM; and `Cc1c(Nc2nccc3c(CN4CC[C@H](O)C4)ccnc23)cccc1-c1cccc(-c2nc3cc(CN4CC[C@@H](C(=O)O)C4)cc(C#N)c3o2)c1C` [Example 145, (R)-1-((7-cyano-2-(3′-((4-(((S)-3-hydroxypyrrolidin-1-yl)methyl)-1,7-naphthyridin-8-yl)amino)-2,2′-dimethyl-[1,1′-biphenyl]-3-yl)benzo[d]oxazol-5-yl)methyl)pyrrolidine-3-carboxylic acid], with at most 0.01 µM; and `Cc1c(-c2nc3cc(CN4CC[C@@H](C(=O)O)C4)cc(Cl)c3o2)cccc1-c1cccc(Nc2nccc3cc(CN4CC[C@H](O)C4)cnc23)c1Cl` [Example 29, (R)-1-((7-chloro-2-(2′-chloro-3′-(3-(((S)-3-hydroxypyrrolidin-1-yl)methyl)-1,7-naphthyridin-8-ylamino)-2-methylbiphenyl-3-yl)benzo[d]oxazol-5-yl)methyl)pyrrolidine-3-carboxylic acid], with at most 0.01 µM. Then `Cc1c(-c2nc3cc(CN4CCCC[C@H]4C(=O)O)cc(Cl)c3o2)cccc1-c1cccc(NC(=O)c2ccc(CNCCO)cn2)c1Cl` [Example 1, (S)-1-((7-chloro-2-(2′-chloro-3′-(5-(((2-hydroxyethyl)amino)methyl)picolinamido)-2-methyl-[1,1′-biphenyl]-3-yl)benzo[d]oxazol-5-yl)methyl)piperidine-2-carboxylic acid], with at most 0.01 µM; and `Cc1c(-c2nc3cc(CN4CC[C@@H](O)C4)cc(C#N)c3o2)cccc1-c1cccc(NC(=O)c2nc3c(n2C)CCN(CC24CCC(C(=O)O)(CC2)C4)C3)c1Cl` [Example 267, (R)-4-((2-(2-chloro-3′-(7-cyano-5-((3-hydroxypyrrolidin-1-yl)methyl)benzo[d]oxazol-2-yl)-2′-methylbiphenyl-3-ylcarbamoyl)-1-methyl-6,7-dihydro-1H-imidazo[4,5-c]pyridin-5(4H)-yl)methyl)bicyclo[2.2.1]heptane-1-carboxylic acid], with at most 0.01 µM.

For the origin of these results see patent US10308644B2, “Heterocyclic compounds as immunomodulators” (Incyte Corporation, priority 2016, dated 2019).
